Calls of active or inactive are those of the source.
Experiments:
[1] = biological target: Adenosylmethionine-8-amino-7-oxononanoate aminotransferase (Mycobacterium tuberculosis, UniProt P9WQ81); experiment: Mycobacterium tuberculosis BioA enzyme inhibitor Measured in Biochemical System Using Plate Reader - 2163-02_Inhibitor_Dose_CherryPick_Activity.; format: functional, Mycobacterium tuberculosis UT205
[2] = biological target: 72 kDa type IV collagenase (Homo sapiens, UniProt P08253); experiment: Dose Response validation of uHTS RPN11 inhibitor hits using a MMP-2 Fluorescence assay.; format: functional
[3] = biological target: 26S proteasome non-ATPase regulatory subunit 14 (Homo sapiens, UniProt O00487); experiment: inhibition of proteasome subunit RPN11 – biochemical, fluorescence polarization, uHTS hits, confirmation (AID 602368); format: functional
Prothrombin = Prothrombin (Bos taurus, UniProt P00735); experiment: thrombin inhibition, dose response, biochemical, fluorescence polarization, uHTS hits (AID 602369); format: functional
[4] = ARNT/TACC3 interaction disruptors, potency, confirmation, biochemical, AlphaScreen, cherry-picked samples (AID 651703); format: functional, Homo sapiens;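 further: His-tagged ARNT PAS-B domain paired with GST-TACC3 E629A dimer coactivator fragment; potency of inhibitors that break up the complex and lower AlphaScreen signal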
cells = format: functional
[5] = biological target: Ras and Rab interactor 1/Tyrosine-protein kinase ABL1 (Homo sapiens, UniProt P00519+Q13671); format: functional;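 further: biochemical TR-FRET dose-response test measuring inhibition of binding between Rin1 and Abl proteins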
Trypsin = Trypsin (Sus scrofa, UniProt P00761); experiment: porcine trypsin inhibitors, dose response, selectivity assay for Rce1 protease inhibitor project, biochemical, quenched peptide fluorescence, cherry-pick (AID 488789)
CAAX prenyl protease 2 [6] = biological target: T1, CAAX prenyl protease 2 (Saccharomyces cerevisiae S288c, UniProt Q03530); format: biochemical
T1 sequence (Q03530 whole entry): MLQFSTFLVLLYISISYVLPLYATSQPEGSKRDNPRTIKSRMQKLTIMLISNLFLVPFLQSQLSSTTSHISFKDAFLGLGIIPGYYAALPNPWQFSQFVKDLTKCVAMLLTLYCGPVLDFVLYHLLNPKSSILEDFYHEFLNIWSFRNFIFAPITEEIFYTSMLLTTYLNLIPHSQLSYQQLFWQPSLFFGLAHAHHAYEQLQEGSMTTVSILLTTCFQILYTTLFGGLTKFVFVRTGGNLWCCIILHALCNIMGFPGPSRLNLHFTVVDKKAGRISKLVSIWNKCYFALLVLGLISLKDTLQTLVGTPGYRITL

[7] = biological target: DNA repair and recombination protein RAD54-like (Homo sapiens, UniProt Q92698); experiment: inhibitors of human RAD54 branch migration, confirmation, biochemical, fluorescence, cherry-picked samples, dose series (AID 651657); format: functional
CAAX prenyl protease 2 [8] = biological target: T2, CAAX prenyl protease 2 (Homo sapiens, UniProt Q9Y256); experiment: human Rce1 protease inhibitors, dose response, biochemical, yeast membranes, quenched-peptide fluorescence, cherry-pick (AID 588849)
T2 sequence (Q9Y256 whole entry): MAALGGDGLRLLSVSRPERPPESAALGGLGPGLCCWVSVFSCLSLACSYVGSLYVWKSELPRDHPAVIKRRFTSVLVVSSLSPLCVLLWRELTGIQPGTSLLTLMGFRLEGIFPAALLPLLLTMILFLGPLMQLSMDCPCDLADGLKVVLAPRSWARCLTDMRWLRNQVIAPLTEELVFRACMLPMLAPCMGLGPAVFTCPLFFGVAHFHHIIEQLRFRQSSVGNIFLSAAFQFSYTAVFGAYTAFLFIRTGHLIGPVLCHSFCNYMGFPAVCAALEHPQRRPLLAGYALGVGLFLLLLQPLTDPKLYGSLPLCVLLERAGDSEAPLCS

[9] = biological target: T3, Short transient receptor potential channel 4 (Mus musculus, UniProt Q9QUQ5); experiment: mouse TRPC4 channel activators, dose response, cell-based, HEK293 TRPC4/mu-opioid, Fluo-4 calcium (AID 434937); format: functional
T3 sequence (Q9QUQ5 whole entry): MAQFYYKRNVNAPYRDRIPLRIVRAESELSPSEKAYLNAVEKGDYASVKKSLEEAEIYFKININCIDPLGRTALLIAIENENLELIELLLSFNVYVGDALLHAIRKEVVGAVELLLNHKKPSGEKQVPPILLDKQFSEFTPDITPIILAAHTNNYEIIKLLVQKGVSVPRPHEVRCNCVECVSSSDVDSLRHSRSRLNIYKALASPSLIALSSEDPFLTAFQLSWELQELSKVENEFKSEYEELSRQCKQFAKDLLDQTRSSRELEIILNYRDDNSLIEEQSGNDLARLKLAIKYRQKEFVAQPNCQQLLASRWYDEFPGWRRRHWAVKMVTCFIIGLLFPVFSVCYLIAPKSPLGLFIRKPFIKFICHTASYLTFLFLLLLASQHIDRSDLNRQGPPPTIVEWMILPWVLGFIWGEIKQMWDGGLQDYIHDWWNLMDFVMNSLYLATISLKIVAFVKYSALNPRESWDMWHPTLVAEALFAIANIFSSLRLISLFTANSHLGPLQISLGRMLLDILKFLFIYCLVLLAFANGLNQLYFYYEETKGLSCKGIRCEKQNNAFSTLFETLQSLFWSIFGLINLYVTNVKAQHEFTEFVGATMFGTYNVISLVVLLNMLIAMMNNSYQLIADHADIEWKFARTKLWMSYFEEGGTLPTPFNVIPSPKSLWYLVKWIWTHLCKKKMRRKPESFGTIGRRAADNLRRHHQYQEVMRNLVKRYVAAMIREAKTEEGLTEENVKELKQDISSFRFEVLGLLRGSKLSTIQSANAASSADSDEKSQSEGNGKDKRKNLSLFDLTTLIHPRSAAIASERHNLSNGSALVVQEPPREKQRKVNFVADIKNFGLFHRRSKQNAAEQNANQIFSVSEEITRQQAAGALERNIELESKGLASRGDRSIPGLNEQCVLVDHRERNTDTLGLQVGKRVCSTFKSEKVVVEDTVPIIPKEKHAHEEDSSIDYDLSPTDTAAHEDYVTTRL

[10] = biological target: T4, DNA repair protein RAD52 homolog (Homo sapiens, UniProt P43351); format: functional, biochemical
T4 sequence (P43351 whole entry): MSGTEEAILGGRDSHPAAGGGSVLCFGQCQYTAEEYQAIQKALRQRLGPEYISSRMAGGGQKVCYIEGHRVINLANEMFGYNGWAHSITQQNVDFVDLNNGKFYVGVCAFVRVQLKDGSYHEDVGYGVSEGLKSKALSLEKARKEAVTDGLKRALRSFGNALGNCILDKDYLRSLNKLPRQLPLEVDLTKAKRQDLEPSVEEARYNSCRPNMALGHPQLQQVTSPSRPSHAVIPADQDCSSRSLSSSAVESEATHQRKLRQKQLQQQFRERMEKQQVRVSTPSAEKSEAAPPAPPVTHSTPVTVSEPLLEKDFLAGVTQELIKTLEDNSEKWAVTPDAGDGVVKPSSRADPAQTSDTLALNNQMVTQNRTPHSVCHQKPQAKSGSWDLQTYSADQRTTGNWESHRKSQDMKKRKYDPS

[11] = biological target: T5, Corticotropin-releasing factor receptor 2/Corticotropin-releasing factor-binding protein (Homo sapiens, UniProt P24387+Q13324); experiment: activators of CRF receptor 2 with binding protein – uHTS hits, confirmation (AID 602473); format: functional; settings: read-out: EC50_Mean
T5 sequence (Q13324 whole entry): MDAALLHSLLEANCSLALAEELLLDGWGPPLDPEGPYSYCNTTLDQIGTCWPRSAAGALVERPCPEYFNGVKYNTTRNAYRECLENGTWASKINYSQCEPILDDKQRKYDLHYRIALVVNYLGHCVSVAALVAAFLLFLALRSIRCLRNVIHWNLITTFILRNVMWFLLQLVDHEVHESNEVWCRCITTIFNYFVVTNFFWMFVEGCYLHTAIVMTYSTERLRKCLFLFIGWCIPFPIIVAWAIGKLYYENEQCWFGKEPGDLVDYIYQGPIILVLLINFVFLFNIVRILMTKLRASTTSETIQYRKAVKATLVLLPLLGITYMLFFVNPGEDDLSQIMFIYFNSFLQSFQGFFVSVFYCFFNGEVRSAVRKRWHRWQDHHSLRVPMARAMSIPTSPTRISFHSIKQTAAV
T5 sequence (P24387 whole entry): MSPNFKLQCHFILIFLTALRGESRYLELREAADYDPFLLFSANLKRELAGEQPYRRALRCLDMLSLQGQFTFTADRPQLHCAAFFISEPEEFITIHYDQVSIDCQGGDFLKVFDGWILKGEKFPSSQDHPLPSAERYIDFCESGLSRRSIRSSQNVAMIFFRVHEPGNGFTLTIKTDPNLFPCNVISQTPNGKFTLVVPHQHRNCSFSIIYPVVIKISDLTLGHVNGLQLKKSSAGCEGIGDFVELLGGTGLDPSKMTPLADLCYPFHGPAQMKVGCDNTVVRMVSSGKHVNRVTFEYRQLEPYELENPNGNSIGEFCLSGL

[12] = biological target: T5, Corticotropin-releasing factor receptor 2/Corticotropin-releasing factor-binding protein; experiment: Dose Response confirmation of uHTS hits for small molecule antagonists of the CRF-binding protein and CRF-R2 receptor complex.; format: functional; settings: read-out: IC50_Mean
[13] = CRF-BP/CRF-R2 complex antagonists, dose response, cell-based, uHTS hits, 384-well (AID 651639); format: functional, Homo sapiens; settings: read-out: IC50_Mean

Chain of DNA repair and recombination protein RAD54-like (Q92698 whole entry): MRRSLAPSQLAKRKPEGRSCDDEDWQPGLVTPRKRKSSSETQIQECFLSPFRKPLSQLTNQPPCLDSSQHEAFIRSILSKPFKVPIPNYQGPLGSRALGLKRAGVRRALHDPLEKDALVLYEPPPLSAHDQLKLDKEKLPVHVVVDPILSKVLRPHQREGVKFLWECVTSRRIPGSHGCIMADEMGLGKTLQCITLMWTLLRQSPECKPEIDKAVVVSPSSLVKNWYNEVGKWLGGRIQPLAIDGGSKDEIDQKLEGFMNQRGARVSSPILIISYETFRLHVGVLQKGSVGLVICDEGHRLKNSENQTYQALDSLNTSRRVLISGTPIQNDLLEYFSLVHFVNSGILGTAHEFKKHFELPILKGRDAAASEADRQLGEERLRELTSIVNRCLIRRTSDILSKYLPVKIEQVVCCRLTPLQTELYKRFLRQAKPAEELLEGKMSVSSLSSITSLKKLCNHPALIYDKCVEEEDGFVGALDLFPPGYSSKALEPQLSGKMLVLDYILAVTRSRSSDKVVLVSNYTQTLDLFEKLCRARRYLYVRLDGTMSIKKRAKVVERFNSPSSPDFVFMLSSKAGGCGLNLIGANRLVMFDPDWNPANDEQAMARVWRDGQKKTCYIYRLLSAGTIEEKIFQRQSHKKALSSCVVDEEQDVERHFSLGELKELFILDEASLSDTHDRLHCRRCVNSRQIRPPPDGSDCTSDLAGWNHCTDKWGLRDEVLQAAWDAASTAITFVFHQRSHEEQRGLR
Chain of 26S proteasome non-ATPase regulatory subunit 14 (O00487 whole entry): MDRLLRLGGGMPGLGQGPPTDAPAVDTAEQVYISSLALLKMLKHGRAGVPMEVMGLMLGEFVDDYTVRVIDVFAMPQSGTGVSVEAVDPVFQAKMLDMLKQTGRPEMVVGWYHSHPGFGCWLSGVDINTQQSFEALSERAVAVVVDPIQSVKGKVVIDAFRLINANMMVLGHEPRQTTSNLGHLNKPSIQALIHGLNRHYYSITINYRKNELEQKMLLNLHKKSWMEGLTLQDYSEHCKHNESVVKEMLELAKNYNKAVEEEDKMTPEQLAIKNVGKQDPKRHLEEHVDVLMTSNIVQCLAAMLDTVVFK
Chain of Adenosylmethionine-8-amino-7-oxononanoate aminotransferase (P9WQ81 whole entry): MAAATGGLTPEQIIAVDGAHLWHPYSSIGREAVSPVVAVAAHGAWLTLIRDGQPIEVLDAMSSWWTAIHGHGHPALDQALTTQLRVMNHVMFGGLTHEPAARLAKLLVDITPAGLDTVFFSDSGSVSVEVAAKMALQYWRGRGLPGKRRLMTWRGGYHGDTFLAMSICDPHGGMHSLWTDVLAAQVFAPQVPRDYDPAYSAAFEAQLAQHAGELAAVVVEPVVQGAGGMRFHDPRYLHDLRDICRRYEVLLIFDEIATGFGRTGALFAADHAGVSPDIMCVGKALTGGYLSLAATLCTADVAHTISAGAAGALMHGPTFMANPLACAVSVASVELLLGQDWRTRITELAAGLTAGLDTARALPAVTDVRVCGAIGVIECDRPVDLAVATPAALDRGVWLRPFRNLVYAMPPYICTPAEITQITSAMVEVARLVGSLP
Chain of Ras and Rab interactor 1/Tyrosine-protein kinase ABL1 (P00519 whole entry): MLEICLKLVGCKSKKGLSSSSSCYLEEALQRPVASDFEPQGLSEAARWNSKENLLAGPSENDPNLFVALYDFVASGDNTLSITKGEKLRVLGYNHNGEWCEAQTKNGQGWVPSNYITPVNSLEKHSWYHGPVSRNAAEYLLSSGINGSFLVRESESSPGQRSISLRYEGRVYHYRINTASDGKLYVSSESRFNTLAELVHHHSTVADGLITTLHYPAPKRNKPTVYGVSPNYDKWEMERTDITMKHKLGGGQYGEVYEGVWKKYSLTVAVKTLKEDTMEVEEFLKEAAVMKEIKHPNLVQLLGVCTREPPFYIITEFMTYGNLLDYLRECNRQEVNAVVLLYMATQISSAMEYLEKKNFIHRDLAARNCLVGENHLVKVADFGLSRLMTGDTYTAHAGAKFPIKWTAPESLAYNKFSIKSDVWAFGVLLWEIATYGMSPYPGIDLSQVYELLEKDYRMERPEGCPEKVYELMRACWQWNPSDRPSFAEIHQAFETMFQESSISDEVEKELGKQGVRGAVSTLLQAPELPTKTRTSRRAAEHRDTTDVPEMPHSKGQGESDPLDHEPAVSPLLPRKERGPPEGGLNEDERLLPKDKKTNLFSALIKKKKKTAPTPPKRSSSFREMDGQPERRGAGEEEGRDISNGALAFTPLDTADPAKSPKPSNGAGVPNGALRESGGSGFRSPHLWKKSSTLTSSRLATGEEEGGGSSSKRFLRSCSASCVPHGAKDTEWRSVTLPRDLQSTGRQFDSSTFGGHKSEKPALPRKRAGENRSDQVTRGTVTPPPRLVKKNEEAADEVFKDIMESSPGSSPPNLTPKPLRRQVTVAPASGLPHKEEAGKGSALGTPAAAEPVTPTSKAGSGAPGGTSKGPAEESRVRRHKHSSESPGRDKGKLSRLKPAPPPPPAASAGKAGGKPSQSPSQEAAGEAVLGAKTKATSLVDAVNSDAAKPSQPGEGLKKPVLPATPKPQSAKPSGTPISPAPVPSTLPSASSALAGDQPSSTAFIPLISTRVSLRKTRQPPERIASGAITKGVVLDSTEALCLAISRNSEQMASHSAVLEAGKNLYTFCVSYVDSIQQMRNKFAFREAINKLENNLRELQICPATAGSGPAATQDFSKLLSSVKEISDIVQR
Chain of Ras and Rab interactor 1/Tyrosine-protein kinase ABL1 (Q13671 whole entry): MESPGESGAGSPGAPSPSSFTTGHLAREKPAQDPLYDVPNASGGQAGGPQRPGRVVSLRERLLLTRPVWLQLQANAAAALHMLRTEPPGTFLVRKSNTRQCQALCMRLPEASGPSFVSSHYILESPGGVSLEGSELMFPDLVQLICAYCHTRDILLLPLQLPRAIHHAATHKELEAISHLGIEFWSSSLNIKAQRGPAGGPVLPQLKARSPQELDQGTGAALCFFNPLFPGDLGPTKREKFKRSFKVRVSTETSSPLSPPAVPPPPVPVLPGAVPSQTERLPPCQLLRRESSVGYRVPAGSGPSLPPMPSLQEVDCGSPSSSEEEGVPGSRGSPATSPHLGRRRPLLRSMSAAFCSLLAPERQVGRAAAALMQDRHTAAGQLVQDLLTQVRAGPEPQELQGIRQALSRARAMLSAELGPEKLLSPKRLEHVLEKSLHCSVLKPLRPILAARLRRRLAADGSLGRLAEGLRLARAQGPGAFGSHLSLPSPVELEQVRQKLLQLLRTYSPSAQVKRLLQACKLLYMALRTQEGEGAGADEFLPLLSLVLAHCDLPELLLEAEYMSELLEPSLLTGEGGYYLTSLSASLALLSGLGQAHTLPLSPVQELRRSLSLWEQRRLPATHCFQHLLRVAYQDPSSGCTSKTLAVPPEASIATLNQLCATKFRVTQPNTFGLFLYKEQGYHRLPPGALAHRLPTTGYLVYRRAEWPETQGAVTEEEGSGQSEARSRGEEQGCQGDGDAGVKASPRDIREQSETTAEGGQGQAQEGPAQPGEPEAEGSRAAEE
Chain of Trypsin (P00761 whole entry): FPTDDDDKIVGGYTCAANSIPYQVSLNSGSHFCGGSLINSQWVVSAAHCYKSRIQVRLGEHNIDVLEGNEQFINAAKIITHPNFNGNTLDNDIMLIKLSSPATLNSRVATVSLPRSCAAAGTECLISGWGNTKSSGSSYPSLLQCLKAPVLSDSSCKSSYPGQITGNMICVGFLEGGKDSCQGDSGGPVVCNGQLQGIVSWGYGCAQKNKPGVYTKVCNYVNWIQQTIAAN
Chain of 72 kDa type IV collagenase (P08253 whole entry): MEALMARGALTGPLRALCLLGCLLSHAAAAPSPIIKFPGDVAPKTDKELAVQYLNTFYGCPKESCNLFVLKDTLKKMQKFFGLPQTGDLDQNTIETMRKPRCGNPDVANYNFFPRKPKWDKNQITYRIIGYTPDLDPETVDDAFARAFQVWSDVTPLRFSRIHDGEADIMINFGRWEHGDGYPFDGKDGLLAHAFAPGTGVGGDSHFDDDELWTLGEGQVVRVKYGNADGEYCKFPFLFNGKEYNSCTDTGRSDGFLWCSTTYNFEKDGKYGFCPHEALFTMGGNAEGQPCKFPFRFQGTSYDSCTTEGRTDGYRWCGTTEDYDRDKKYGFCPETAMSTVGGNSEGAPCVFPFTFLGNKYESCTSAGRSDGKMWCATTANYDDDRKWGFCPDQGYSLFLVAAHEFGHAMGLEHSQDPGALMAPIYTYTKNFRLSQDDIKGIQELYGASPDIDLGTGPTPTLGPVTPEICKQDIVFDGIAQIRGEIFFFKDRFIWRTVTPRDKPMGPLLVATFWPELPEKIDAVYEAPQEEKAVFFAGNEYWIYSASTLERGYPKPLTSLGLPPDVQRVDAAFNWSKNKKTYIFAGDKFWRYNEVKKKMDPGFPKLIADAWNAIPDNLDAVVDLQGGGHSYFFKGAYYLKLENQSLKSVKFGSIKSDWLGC

COc1cc(-c2nnc(S)n2C(C)c2ccccc2)cc(OC)c1OC (configuration not stated)
AC50 [1]: 5.84 µM (active)

O=C1CSC(=S)N1N=Cc1ccc(Cl)s1
IC50 [2]: > 100 µM (inactive)
IC50 [3]: 59.4 µM (active)
IC50 (Prothrombin): 27.1 µM (active)

COCCn1c(C)cc(C(=O)COC(=O)c2ccc([N+](=O)[O-])o2)c1C
AC50 [4]: 117 µM (active)
IC50 (cells): < 0.1 µM (active)

CCCCC(=O)C1CCN(Cc2ccccc2)CC1
IC50 [5]: 19.4 µM (inactive)

COc1ccc2c(c1)c1ncn(CCN3CCCCC3)c(=O)c1n2C
AC50 (Trypsin): 13.1 µM (active)
AC50 (CAAX prenyl protease 2 [6]): 13.9 µM (active)
AC50 [7]: 35 µM (active)
AC50 (CAAX prenyl protease 2 [8]): 4.82 µM (active)

CCCN(CCC)CCCNC(=O)c1cc2c(-c3ccc(OC)c(OC)c3)nn(C)c2s1
AC50 [7]: 9.65 µM (active)
EC50 [9]: 0.531 µM (active)
AC50 [10]: 3.41 µM (active)

COc1ccc(C2CCCN2C(=O)Nc2ccc(C)c(C)c2)cc1OC (configuration not stated)
EC50 [11]: > 53 µM (inactive)
IC50 [12]: 42.4 µM (active)
IC50 [13]: > 20 µM (inactive)

Reference: ChEMBL document CHEMBL1201862, “PubChem BioAssay data set” (2004)
